Source: ChEMBL document CHEMBL5705899 (Biochem J, 2014)
The source made the active and inactive calls. The calls are words filed in the database; no cut-off is given here.

Key:
[1] = target: Tyrosine-protein kinase CSK (Homo sapiens) (UniProt P41240); experiment: Inhibition of recombinant human N-terminal GST-tagged CSK (1 to 450 residues) expressed in Escherichia coli assessed as remaining activity at 1 uM Cdc2 peptide as substrate incubated for 30 mins in presence of [gamma-33P]ATP by filter binding method relative to control
[2] = target: Insulin receptor-related protein (Homo sapiens) (UniProt P14616); experiment: Inhibition of human INSRR at 1 uM using poly(Ala,Glu,Lys,Tyr) as substrate in presence of 33P-ATP by ProQinase assay
[3] = target: Serine/threonine-protein kinase D3 (Homo sapiens) (UniProt O94806); experiment: Inhibition of human PKCnu at 1 uM using bio-4xCHKT as substrate in presence of 33P-ATP by ProQinase assay
[4] = target: MAP/microtubule affinity-regulating kinase 3 (Homo sapiens) (UniProt P27448); experiment: Inhibition of recombinant human N-terminal His6-tagged MARK3 (2 to 729 residues) expressed in baculovirus infected Sf21 cells assessed as remaining activity at 1 uM using CHKtide as substrate incubated for 30 mins in presence of [gamma-33P]ATP by filter binding method relative to control
[5] = target: Fibroblast growth factor receptor 1 (Homo sapiens) (UniProt P11362); experiment: Inhibition of recombinant human N-terminal His6-tagged FGFR1 (400 to 820 residues) expressed in baculovirus infected Sf21 cells assessed as remaining activity at 1 uM using Poly(Glu,Tyr) as substrate incubated for 30 mins in presence of [gamma-33P]ATP by filter binding method relative to control
Sequence of Fibroblast growth factor receptor 1 (Homo sapiens) (P11362 22-822 limits assumed): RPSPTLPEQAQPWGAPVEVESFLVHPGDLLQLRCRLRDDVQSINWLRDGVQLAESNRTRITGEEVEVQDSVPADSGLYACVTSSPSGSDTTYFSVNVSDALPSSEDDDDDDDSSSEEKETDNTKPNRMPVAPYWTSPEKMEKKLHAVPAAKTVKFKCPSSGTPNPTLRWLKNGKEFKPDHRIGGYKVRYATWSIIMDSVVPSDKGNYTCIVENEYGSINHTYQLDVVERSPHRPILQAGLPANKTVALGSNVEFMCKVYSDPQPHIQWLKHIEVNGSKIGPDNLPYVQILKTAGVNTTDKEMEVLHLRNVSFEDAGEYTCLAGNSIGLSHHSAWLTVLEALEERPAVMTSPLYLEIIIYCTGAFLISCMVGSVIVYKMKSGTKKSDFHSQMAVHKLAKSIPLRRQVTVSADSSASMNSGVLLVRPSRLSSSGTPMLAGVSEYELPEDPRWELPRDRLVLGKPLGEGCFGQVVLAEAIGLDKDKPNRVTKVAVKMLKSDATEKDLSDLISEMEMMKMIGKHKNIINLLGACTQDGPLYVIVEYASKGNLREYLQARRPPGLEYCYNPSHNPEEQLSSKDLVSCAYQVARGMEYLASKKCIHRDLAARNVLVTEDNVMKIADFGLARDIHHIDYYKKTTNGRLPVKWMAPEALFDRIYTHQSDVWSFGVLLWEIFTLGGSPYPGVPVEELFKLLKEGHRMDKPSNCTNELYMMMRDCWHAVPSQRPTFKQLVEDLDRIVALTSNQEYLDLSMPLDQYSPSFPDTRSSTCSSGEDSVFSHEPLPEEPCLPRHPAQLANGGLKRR

[6] = target: Tau-tubulin kinase 1 (Homo sapiens) (UniProt Q5TCY1); experiment: Inhibition of recombinant human N-terminal GST-tagged TTBK1 (1 to 1321 residues) expressed in Escherichia coli assessed as remaining activity at 1 uM using RRKDLHDDEEDEAMSITA as substrate incubated for 30 mins in presence of [gamma-33P]ATP by filter binding method relative to control
Sequence of Tau-tubulin kinase 1 (Homo sapiens) (Q5TCY1 whole entry, the tested form may be a part): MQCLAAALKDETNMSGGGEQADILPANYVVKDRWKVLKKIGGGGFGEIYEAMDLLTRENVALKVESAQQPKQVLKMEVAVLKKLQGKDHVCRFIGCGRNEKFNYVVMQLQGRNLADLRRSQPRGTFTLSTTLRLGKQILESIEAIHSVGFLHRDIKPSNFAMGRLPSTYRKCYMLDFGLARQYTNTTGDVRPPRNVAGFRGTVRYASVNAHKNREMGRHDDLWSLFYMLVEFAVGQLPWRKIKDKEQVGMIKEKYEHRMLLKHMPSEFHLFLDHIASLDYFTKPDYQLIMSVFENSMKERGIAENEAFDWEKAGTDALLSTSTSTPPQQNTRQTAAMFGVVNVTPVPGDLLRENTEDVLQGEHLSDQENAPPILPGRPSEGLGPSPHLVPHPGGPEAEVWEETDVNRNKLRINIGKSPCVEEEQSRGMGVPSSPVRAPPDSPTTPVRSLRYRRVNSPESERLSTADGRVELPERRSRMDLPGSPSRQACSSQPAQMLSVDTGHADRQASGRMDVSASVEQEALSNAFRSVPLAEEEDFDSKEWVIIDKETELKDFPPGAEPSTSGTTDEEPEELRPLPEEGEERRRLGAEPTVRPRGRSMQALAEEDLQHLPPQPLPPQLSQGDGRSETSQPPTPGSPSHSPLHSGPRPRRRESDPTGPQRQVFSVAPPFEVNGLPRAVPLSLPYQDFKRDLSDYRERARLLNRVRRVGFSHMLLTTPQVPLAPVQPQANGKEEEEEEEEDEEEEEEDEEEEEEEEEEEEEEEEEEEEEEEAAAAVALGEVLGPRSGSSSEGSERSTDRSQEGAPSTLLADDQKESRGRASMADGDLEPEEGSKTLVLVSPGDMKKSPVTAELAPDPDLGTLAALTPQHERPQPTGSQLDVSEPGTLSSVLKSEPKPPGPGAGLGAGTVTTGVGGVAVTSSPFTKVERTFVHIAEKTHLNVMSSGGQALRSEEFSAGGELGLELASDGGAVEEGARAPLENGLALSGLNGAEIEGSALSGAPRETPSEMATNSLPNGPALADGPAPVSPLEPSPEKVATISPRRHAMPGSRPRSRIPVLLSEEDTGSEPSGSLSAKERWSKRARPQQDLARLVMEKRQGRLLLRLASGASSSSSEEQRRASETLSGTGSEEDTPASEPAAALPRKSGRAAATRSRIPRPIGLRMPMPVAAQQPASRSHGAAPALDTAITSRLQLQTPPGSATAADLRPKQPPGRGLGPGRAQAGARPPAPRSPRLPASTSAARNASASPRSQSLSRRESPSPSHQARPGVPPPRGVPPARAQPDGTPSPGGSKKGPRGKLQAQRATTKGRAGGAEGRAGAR

[7] = target: Serine/threonine-protein kinase Nek6 (Homo sapiens) (UniProt Q9HC98); experiment: Inhibition of human NEK6 at 1 uM using RBER-GSK3 as substrate in presence of 33P-ATP by ProQinase assay
Sequence of Serine/threonine-protein kinase Nek6 (Homo sapiens) (Q9HC98 whole entry, the tested form may be a part): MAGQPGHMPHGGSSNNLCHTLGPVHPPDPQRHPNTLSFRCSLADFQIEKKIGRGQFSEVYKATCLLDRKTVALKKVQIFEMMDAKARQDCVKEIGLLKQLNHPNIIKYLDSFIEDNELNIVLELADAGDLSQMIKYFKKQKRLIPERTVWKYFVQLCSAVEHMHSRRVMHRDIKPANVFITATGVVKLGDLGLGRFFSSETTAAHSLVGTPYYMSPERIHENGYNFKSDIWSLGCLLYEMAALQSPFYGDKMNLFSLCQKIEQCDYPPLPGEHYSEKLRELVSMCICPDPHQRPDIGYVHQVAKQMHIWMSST

[8] = target: Focal adhesion kinase 1 (Homo sapiens) (UniProt Q05397); experiment: Inhibition of human FAK (2 to 1052 residues) at 1 uM using polyEY as substrate in presence of 33P-ATP by ProQinase assay
[9] = target: Mitogen-activated protein kinase 11 (Homo sapiens) (UniProt Q15759); experiment: Inhibition of recombinant human N-terminal GST-tagged P38beta (1 to 364 residues) expressed in Escherichia coli assessed as remaining activity at 1 uM using MBP as substrate incubated for 30 mins in presence of [gamma-33P]ATP by filter binding method relative to control
[10] = target: Calcium/calmodulin-dependent protein kinase kinase 1 (Homo sapiens) (UniProt Q8N5S9); experiment: Inhibition of human CAMKK1 at 1 uM using RB-CTF as substrate in presence of 33P-ATP by ProQinase assay
Sequence of Calcium/calmodulin-dependent protein kinase kinase 1 (Homo sapiens) (Q8N5S9 whole entry, looked up): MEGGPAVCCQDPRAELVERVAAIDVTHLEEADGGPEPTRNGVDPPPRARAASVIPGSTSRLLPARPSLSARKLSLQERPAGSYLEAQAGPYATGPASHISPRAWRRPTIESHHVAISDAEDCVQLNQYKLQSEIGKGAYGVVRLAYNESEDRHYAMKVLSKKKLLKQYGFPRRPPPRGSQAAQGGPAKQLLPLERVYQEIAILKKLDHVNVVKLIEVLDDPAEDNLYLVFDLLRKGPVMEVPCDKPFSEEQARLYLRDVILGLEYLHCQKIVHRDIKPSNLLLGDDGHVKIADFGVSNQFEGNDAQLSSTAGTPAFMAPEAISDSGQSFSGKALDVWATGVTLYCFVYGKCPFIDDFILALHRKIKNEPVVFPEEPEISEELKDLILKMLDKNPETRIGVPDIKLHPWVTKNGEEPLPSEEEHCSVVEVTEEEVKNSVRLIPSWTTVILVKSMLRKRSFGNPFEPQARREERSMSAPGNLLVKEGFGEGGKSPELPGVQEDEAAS

[11] = target: Phosphatidylinositol 4-kinase type 2-alpha (Homo sapiens, UniProt Q9BTU6); experiment: Inhibition of PI4K2alpha (unknown origin) at 1 uM
[12] = target: Protein kinase C delta type (Homo sapiens) (UniProt Q05655); experiment: Inhibition of human PKCdelta at 1 uM using 3xChocktide-PKC as substrate in presence of 33P-ATP by ProQinase assay
[13] = target: Casein kinase I isoform gamma-2 (Homo sapiens) (UniProt P78368); experiment: Inhibition of human CK1gamma2 at 1 uM using casein as substrate in presence of 33P-ATP by ProQinase assay
[14] = target: Serine/threonine-protein kinase ULK2 (Homo sapiens) (UniProt Q8IYT8); experiment: Inhibition of recombinant human ULK2 (1 to 1036 residues) expressed in baculovirus infected Sf21 cells assessed as remaining activity at 1 uM using MBP as substrate incubated for 30 mins in presence of [gamma-33P]ATP by filter binding method relative to control
[15] = target: Mitogen-activated protein kinase 12 (Homo sapiens) (UniProt P53778); experiment: Inhibition of human P38gamma at 1 uM using RBER-IRStide as substrate in presence of 33P-ATP by ProQinase assay
[16] = target: Serine/threonine-protein kinase PAK 5 (Homo sapiens) (UniProt Q9P286); experiment: Inhibition of human PAK7 at 1 uM using bio-4xCHKT as substrate in presence of 33P-ATP by ProQinase assay
[17] = target: CDK9/Cyclin K (Homo sapiens) (UniProt P50750+O75909); experiment: Inhibition of human CDK9/CycK at 1 uM using RBER-CHKtide as substrate in presence of 33P-ATP by ProQinase assay; type: protein-complex assay
[18] = target: Serine/threonine-protein kinase 26 (Homo sapiens) (UniProt Q9P289); experiment: Inhibition of recombinant human N-terminal His6-tagged MST4 (1 to 416 residues) expressed in baculovirus infected Sf21 cells assessed as remaining activity at 1 uM using MBP as substrate incubated for 30 mins in presence of [gamma-33P]ATP by filter binding method relative to control
[19] = target: Phosphorylase b kinase gamma catalytic chain, skeletal muscle/heart isoform (Homo sapiens) (UniProt Q16816); experiment: Inhibition of human PHKG1 at 1 uM using 3xChocktide-PKC as substrate in presence of 33P-ATP by ProQinase assay
Sequence of Phosphorylase b kinase gamma catalytic chain, skeletal muscle/heart isoform (Homo sapiens) (Q16816 whole entry, looked up, the tested form may be a part, canonical isoform): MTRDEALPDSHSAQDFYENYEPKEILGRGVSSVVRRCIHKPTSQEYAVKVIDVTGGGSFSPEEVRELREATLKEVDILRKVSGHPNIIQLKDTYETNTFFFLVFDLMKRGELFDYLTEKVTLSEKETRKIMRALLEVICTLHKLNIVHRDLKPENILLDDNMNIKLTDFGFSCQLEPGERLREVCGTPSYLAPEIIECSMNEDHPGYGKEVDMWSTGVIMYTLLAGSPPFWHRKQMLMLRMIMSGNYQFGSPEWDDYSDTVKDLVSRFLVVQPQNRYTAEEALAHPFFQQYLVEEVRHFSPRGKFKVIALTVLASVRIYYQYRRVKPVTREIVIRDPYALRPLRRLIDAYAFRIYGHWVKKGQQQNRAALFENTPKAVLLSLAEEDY

[20] = target: PAS domain-containing serine/threonine-protein kinase (Homo sapiens) (UniProt Q96RG2); experiment: Inhibition of human PASK at 1 uM using RBER-CHKtide as substrate in presence of 33P-ATP by ProQinase assay
[21] = target: Ribosomal protein S6 kinase beta-1 (Homo sapiens) (UniProt P23443); experiment: Inhibition of human S6K1 at 1 uM using RBER-GSK3 as substrate in presence of 33P-ATP by ProQinase assay
Sequence of Ribosomal protein S6 kinase beta-1 (Homo sapiens) (P23443 whole entry, looked up): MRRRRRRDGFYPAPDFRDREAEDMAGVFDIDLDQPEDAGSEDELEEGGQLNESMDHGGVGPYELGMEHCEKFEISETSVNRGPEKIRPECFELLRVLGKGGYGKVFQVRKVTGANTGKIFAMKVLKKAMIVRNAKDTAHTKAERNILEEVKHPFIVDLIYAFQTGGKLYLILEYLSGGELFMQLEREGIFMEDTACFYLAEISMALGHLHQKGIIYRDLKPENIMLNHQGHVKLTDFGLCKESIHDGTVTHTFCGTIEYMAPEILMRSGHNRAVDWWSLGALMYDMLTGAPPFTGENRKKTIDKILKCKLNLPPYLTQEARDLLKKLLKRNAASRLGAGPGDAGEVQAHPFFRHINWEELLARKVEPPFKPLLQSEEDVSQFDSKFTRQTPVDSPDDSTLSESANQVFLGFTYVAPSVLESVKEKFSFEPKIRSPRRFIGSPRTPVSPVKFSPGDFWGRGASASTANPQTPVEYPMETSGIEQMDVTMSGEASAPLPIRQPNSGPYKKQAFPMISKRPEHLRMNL

[22] = target: Dual specificity tyrosine-phosphorylation-regulated kinase 4 (Homo sapiens) (UniProt Q9NR20); experiment: Inhibition of human DYRK4 at 1 uM using RBER-CHKtide as substrate in presence of 33P-ATP by ProQinase assay
[23] = target: Proto-oncogene tyrosine-protein kinase ROS (Homo sapiens) (UniProt P08922); experiment: Inhibition of human ROS at 1 uM using poly(Ala,Glu,Lys,Tyr) as substrate in presence of 33P-ATP by ProQinase assay
[24] = target: Diacylglycerol kinase eta (Homo sapiens) (UniProt Q86XP1); experiment: Inhibition of DGKeta (unknown origin) at 1 uM
Sequence of Diacylglycerol kinase eta (Homo sapiens) (Q86XP1 whole entry): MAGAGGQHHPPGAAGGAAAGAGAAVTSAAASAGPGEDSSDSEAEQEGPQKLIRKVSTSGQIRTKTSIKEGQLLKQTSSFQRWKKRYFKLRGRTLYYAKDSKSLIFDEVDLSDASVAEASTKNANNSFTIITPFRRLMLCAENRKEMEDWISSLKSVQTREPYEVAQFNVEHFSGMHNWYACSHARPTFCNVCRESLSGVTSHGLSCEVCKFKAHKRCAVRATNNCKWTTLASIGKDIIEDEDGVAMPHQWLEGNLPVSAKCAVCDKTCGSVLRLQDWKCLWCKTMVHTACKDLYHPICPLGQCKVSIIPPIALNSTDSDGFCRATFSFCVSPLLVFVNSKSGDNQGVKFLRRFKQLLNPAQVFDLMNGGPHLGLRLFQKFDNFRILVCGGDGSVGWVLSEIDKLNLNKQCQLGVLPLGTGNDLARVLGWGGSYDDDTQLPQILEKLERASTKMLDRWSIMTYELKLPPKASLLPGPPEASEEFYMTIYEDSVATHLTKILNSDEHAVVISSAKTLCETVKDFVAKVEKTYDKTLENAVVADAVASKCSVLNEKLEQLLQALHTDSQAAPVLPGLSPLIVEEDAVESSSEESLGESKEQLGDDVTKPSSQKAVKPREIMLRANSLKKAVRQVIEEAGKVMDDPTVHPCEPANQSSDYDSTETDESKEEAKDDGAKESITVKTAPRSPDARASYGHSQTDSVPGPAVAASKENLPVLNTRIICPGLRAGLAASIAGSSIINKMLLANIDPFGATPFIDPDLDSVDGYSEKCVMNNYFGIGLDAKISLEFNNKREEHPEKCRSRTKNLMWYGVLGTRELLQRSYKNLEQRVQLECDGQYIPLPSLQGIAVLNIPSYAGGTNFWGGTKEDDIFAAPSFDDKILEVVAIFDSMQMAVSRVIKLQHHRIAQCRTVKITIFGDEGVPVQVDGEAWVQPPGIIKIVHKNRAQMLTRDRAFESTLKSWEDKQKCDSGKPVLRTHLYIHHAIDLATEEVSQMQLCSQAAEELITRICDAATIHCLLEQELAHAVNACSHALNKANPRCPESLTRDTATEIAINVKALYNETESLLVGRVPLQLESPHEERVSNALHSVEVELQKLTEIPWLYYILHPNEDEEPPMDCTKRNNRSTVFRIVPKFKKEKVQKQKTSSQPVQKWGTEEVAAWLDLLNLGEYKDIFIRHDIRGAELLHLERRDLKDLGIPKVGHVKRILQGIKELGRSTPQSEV

[25] = target: Glycogen synthase kinase-3 alpha (Homo sapiens) (UniProt P49840); experiment: Inhibition of human GSK3alpha at 1 uM using SUPT5 754-837 as substrate in presence of 33P-ATP by ProQinase assay

CC(C)(O)CNc1ncc(-c2ccnc(Nc3ccnc(Cl)c3)n2)c(CC2CC2)n1
Activity [1]: 132% | inhibition [2]: inactive | inhibition [3]: inactive | Activity [4]: 109% | Activity [5]: 95% | Activity [6]: 106% | inhibition [7]: inactive | inhibition [8]: inactive | Activity [9]: 115% | inhibition [10]: inactive | inhibition [11]: inactive | inhibition [12]: inactive | inhibition [13]: inactive | Activity [14]: 118% | inhibition [15]: inactive | inhibition [16]: inactive | inhibition [17]: inactive | Activity [18]: 108% | inhibition [19]: inactive | inhibition [20]: inactive | inhibition [21]: inactive | inhibition [22]: inactive | inhibition [23]: inactive | inhibition [24]: inactive | inhibition [25]: inactive
